Measurements: patent US9717719B2, “Treatment, prevention, and reversal of alcohol-induced liver disease” (Rhode Island Hospital, priority 2006, dated 2017)

Key:
AAH and GAPDH = test: ELISA of AAH and GAPDH immunoreactivity in liver; type: in vivo, rat
Excerpt: (§1) Chow fed control rats were also studied. Rats were monitored daily to ensure equivalent food consumption and maintenance of body weight. […] At the conclusion of the experiment, rats were anesthetized with vaporized isofluorane (SurgiVet, Inc. Waukesha, Wis.), and liver and blood were harvested for analysis. Liver tissue samples were immersion fixed in Histochoice (Amresco Corp., Solon, Ohio) and embedded in paraffin. Adjacent histological sections were stained with Hematoxylin and Eosin or Gomori's Trichrome and examined under code. In addition, liver tissue samples were snap-frozen in a dry ice methanol bath and then stored at −80° C. for later mRNA and protein studies. Throughout the experiment, rats were housed under humane conditions and kept on a 12-hour light/dark cycle with free access to food. All experiments were performed in accordance with protocols that conform to guidelines established by the National Institutes of Health and were approved by Institutional Animal Care and Use Committee at the Lifespan-Rhode Island Hospital.
ELISAs were used to measure immunoreactivity corresponding to AAH, GAPDH and β-actin (negative control). ELISAs were performed in 96-well opaque polystyrene plates (Nalge Nunc International, Rochester, N.Y.). RIPA protein extracts diluted in TBS (40 ng/100 μl) were adsorbed to the bottoms of the wells by overnight incubation at 4° C. After rinsing in TBS, the wells were blocked for 4 hours with 250 μl/well of 2% BSA in TBS. The proteins were then incubated with primary antibody (0.01-0.1 μg/ml) for 1 hour at room temperature. Immunoreactivity was detected with HRP-conjugated secondary antibody (1:10000; Pierce) and the Amplex Red soluble fluorophore (Molecular Probes). […] Binding specificity was determined from parallel negative control incubations with non-relevant antibodies, or with the primary or secondary antibody omitted. The mean levels of specific AAH, GAPDH, and β-actin immunoreactivity were used for inter-group statistical comparisons.

[1] = test system: insulin, IGF-I, IGF-II, their receptors, IRS-1, IRS-2, IRS-4 mRNA in liver; test: qRT-PCR of hepatic insulin and IGF polypeptides, their receptors, and IRS molecules; type: in vivo, rat; details: relative to vehicle; for IGF-II mRNA: chronic ethanol feeding; for IGF-I mRNA: control rats
Excerpt: as §1
Total RNA was extracted from liver tissue using TRIzol® reagent (Invitrogen, Carlsbad, Calif.) according to the manufacturer's protocol. RNA concentrations and purity were determined from the absorbances measured at 260 nm and 280 nm. RNA (2 μg) was reverse transcribed using the AMV First Strand cDNA synthesis kit (Roche Diagnostics Corporation, Indianapolis, Ind.) and random oligodeoxynucleotide primers. Quantitative reverse transcriptase polymerase chain reaction (qRT-PCR) assays were used to measure steady-state levels of specific mRNA transcripts. PCR amplifications were performed in 20 μl reactions containing cDNA generated from 2.5 ng of original RNA template, 300 nM each of gene specific forward and reverse primer (Table 2), and 10 μl of 2× QuantiTect SYBR Green PCR Mix (Qiagen Inc, Valencia, Calif.). The amplified signals were detected continuously with the Mastercycler ep realplex instrument and software (Eppendorf AG, Hamburg, Germany). The amplification protocol used was as follows: initial 15-minutes denaturation and enzyme activation at 95° C., 45 cycles of 95° C.×15 sec, 55°-60° C.×30 sec, and 72° C.×30 sec. Annealing temperatures were optimized using the temperature gradient program provided with the Mastercycler ep realplex software.
Complementary (c) DNAs were cloned into PCR-II vectors (Invitrogen, Carlsbad, Calif.). […] Serial dilutions of recombinant plasmid DNA containing target sequences were used as standards in PCR reactions, and regression lines generated from the Ct values of the standards were used to calculate mRNA abundance. Relative mRNA expression was expressed as the ng ratio of specific mRNA to ribosomal (r) 18S measured in the same samples because 18S is highly abundant and the levels are not modulated with disease state. Statistical comparisons were made using the calculated mRNA/18S ratios.

CC(C)(Sc1ccc(CCN(CCCCC2CCCCC2)C(=O)NC2CCCCC2)cc1)C(=O)O [PPAR-α, GW7647]
AAH expression (ELISA) (AAH and GAPDH; control livers): no significant effect
GAPDH expression (ELISA) (AAH and GAPDH; control livers): no significant effect
AAH expression (ELISA) (AAH and GAPDH; ethanol-exposed livers): no significant effect
GAPDH expression (ELISA) (AAH and GAPDH; ethanol-exposed livers): no significant effect
insulin gene expression ([1]; ethanol-exposed group): reduced

CC(C)C[C@H](NC(=O)OCC1c2ccccc2-c2ccccc21)C(=O)O [PPAR-γ, F-L-Leu]
AAH expression (ELISA) (AAH and GAPDH; control livers): slightly reduced
GAPDH expression (ELISA) (AAH and GAPDH; ethanol-exposed livers): significantly increased
IGF-II mRNA [1]: significantly reduced
insulin gene expression ([1]; control group): significantly increased
IGF-I mRNA [1]: significantly increased
IRS-2 mRNA ([1]; ethanol-exposed rats): significantly reduced

CCCc1c(OCCCOc2ccc(OCC(=O)O)cc2)ccc(C(C)=O)c1O [PPAR-δ, L-165,041]
AAH expression (ELISA) (AAH and GAPDH; control livers): slightly reduced
GAPDH expression (ELISA) (AAH and GAPDH; ethanol-exposed livers): significantly increased
IGF-II mRNA [1]: significantly reduced
IRS-2 mRNA ([1]; control group): significantly increased
insulin gene expression ([1]; control group): significantly increased
IGF-I mRNA [1]: significantly increased
insulin receptor mRNA ([1]; controls): increased
IRS-4 mRNA ([1]; ethanol-exposed group): significantly reduced
insulin gene expression ([1]; ethanol-exposed group): reduced
insulin receptor mRNA ([1]; ethanol-fed rat livers): significantly reduced
IRS-1 mRNA ([1]; ethanol-fed rats): significantly reduced
